# According to ChEMBL document CHEMBL3286227, “Guanidinium-based derivatives: searching for new kinase inhibitors” (Eur J Med Chem, 2014):
# pIC50: −log10 of the molar value. Active and inactive are the calls of the source. No cut-off for these calls is given here.
# Key:
# [1] = system: HL-60; experiment: Cytotoxicity against human HL60 cells after 72 hrs by Alamar Blue assay; type: functional, cell-based; conditions: HL-60, 72 h
# [2] = system: HUVEC; experiment: Inhibition of VEGFR in HUVEC using […] as substrate at 10 uM incubated for 20 mins prior to substrate addition relative to control; type: cell-based; conditions: Homo sapiens
# [3] = molecular target: Casein kinase I isoform delta (Homo sapiens, UniProt P48730); experiment: Inhibition of human recombinant casein kinase-1 delta using casein as substrate after 60 mins by kinase-glo luminescence assay
# [4] = molecular target: MAP kinase p38 (Homo sapiens) (UniProt O15264+Q15759+Q16539+P53778); experiment: Inhibition of P38 MAP kinase in human A431 cells using TNF-alpha as substrate at 10 uM incubated for 5 mins prior to substrate addition measured after 10 mins by fluorescence assay relative to control; type: cell-based; conditions: A-431
# [5] = molecular target: Glycogen synthase kinase-3 beta (Homo sapiens, UniProt P49841); experiment: Inhibition of human recombinant GSK-3 beta after 30 mins by luminescence assay
# [6] = molecular target: Serine/threonine-protein kinase RAF and Dual specificity mitogen-activated protein kinase kinase 1 (Raf/MEK) (Homo sapiens) (UniProt P04049+Q02750); experiment: Inhibition of RAF-1/MEK1 (unknown origin) assessed as at 10 uM after 5 mins by fluorescence assay relative to control; type: protein assay
# [7] = molecular target: Serine/threonine-protein kinase B-raf (Homo sapiens) (UniProt P15056); experiment: Competitive binding to B-RAF kinase (unknown origin) at 100 nM to 100 uM after 60 to 120 mins by FRET analysis
# [8] = molecular target: Mitogen-activated protein kinase; ERK1/ERK2 (Homo sapiens) (UniProt P27361+P28482); experiment: Inhibition of ERK1/2 kinase in human A431 cells using EGF as substrate at 10 uM incubated for 5 mins prior to substrate addition measured after 10 mins by fluorescence assay relative to control; type: cell-based; conditions: A-431
# Sequence of Mitogen-activated protein kinase; ERK1/ERK2 (Homo sapiens) (P27361 whole entry, looked up): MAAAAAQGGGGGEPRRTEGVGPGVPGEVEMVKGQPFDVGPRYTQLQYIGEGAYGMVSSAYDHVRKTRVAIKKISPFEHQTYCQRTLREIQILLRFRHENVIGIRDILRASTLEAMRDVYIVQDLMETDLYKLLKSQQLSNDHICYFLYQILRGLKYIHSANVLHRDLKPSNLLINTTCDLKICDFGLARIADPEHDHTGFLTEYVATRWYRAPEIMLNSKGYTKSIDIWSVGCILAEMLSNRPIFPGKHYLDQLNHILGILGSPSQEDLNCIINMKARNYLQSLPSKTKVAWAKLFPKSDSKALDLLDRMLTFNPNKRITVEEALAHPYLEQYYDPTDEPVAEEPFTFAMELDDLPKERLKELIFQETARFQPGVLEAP
# Sequence of Mitogen-activated protein kinase; ERK1/ERK2 (Homo sapiens) (P28482 whole entry, looked up): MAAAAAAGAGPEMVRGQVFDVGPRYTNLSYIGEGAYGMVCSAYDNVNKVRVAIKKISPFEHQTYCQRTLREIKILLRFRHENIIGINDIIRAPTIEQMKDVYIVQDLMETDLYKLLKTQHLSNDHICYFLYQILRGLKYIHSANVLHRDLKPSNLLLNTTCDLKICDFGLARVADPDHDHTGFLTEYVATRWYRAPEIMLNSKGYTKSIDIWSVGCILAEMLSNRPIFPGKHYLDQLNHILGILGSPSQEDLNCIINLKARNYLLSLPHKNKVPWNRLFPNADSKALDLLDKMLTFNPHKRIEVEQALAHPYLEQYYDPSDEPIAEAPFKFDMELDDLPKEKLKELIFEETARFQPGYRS
# Sequence of Glycogen synthase kinase-3 beta (P49841 whole entry): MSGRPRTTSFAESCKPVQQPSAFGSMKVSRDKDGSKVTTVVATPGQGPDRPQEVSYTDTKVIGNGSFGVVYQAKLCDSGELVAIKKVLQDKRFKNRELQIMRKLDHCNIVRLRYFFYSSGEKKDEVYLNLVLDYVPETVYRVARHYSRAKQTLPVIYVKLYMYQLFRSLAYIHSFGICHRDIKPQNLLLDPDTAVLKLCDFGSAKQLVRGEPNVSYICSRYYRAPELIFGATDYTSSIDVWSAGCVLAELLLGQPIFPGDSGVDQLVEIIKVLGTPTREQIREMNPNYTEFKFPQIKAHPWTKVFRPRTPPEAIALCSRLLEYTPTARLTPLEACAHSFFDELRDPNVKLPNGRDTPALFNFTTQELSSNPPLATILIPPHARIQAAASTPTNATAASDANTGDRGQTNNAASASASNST
# Sequence of Serine/threonine-protein kinase B-raf (Homo sapiens) (P15056 whole entry): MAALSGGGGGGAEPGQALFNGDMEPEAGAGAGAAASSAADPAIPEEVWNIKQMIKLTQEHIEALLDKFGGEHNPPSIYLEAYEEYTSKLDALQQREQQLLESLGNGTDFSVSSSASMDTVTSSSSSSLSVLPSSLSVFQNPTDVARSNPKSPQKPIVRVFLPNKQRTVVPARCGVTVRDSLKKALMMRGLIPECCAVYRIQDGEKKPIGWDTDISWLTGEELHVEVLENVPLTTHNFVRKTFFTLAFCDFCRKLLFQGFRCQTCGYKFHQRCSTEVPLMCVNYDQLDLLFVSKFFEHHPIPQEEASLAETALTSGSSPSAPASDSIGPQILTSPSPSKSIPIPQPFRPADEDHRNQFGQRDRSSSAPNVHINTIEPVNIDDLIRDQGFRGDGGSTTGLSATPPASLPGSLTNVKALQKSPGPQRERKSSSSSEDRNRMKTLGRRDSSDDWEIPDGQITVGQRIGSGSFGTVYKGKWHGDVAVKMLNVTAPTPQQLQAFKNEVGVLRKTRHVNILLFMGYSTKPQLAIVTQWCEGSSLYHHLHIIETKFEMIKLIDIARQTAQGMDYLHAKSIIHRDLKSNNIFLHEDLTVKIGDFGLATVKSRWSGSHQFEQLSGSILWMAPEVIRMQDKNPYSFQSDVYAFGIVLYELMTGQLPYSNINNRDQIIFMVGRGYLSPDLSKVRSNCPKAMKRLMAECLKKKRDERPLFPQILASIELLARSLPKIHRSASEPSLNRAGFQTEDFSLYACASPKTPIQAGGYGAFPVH
# Sequence of Casein kinase I isoform delta (P48730 whole entry, canonical isoform): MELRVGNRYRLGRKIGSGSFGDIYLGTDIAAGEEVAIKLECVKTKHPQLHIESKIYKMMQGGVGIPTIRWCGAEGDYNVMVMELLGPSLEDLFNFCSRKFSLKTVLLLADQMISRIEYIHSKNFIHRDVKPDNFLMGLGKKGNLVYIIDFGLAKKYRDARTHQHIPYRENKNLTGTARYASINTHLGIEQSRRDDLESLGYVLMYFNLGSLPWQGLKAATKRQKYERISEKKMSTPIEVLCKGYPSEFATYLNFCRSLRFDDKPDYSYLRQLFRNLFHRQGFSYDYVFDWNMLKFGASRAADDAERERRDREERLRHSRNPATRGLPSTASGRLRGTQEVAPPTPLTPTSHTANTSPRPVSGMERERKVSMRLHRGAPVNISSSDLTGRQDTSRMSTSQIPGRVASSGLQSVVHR
# Sequence of Serine/threonine-protein kinase RAF and Dual specificity mitogen-activated protein kinase kinase 1 (Raf/MEK) (Homo sapiens) (P04049 whole entry, looked up): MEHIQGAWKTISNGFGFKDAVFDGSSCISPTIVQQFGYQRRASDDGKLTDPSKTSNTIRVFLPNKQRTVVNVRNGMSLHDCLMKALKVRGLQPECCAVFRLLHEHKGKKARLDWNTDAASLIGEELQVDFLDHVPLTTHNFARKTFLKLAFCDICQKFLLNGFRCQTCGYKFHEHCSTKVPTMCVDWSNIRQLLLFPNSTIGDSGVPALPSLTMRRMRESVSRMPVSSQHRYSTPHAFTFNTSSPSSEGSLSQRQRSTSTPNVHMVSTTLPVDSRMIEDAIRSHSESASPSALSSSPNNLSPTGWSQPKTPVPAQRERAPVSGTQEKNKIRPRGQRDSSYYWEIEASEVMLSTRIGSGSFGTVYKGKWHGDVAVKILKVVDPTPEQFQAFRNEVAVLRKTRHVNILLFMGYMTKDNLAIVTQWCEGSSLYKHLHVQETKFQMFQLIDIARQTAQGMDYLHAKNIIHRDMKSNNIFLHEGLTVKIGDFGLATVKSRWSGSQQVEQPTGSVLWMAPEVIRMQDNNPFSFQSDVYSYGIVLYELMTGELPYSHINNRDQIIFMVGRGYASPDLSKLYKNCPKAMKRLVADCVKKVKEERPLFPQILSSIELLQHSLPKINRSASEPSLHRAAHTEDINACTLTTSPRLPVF
# Sequence of Serine/threonine-protein kinase RAF and Dual specificity mitogen-activated protein kinase kinase 1 (Raf/MEK) (Homo sapiens) (Q02750 whole entry, looked up): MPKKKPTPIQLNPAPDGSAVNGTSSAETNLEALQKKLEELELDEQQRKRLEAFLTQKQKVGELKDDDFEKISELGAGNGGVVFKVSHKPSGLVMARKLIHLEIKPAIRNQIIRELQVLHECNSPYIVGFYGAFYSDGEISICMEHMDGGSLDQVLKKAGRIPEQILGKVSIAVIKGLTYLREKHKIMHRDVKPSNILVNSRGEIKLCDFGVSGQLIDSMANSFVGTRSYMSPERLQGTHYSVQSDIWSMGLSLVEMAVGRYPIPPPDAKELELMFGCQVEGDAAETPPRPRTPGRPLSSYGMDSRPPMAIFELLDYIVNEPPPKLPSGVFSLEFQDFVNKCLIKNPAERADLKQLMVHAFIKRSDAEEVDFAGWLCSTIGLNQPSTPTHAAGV
pIC50 [3],inhibition [4] [%],pIC50 [5],inhibition [6] [%],Activity [7],inhibition [8] [%],SMILES,pIC50 [1],inhibition [2] [%]
,,,,,,CNC(=O)c1cc(Oc2ccc(NC(=O)Nc3ccc(Cl)c(C(F)(F)F)c3)cc2)ccn1 [SORAFENIB],5.77,
< 4.00,1,< 4.00,4,,,N=C(N)Nc1cccc(Oc2ccc(NC(=N)Nc3ccccc3)cc2)c1,< 4.00,-1
< 4.00,0,< 4.00,35,inactive,8,CC(=O)Nc1cccc(Oc2ccc(NC(=N)Nc3ccc(Cl)c(C(F)(F)F)c3)cc2)c1,5.04,
< 4.00,20,< 4.00,96,inactive,21,N=C(N)Nc1cccc(C(=O)c2ccc(NC(=N)Nc3ccc(Cl)c(C(F)(F)F)c3)cc2)c1,4.65,0
< 4.00,-1,< 4.00,2,,6,N=C(N)Nc1ccc(Oc2ccc(NC(=N)N)cc2)cc1,4.05,7
< 4.00,,< 4.00,,,,N=C(N)Nc1ccc(Cc2cccc(NC(=N)N)c2)cc1,4.45,
< 4.00,,< 4.00,,inactive,,N=C(N)Nc1ccc(Cc2cccc(NC(=N)Nc3ccc(Cl)c(C(F)(F)F)c3)c2)cc1,4.78,
< 4.00,,< 4.00,,,,N=C(N)Nc1ccc(Oc2cccc(NC(=N)Nc3ccccc3)c2)cc1,< 4.00,
< 4.00,,< 4.00,,,,N=C(N)Nc1cccc(Cc2ccc(NC(=N)Nc3ccccc3)cc2)c1,< 4.00,
< 4.00,4,< 4.00,86,,,N=C(N)Nc1ccc(Nc2cccc(NC(=N)N)c2)cc1,4.17,-6
< 4.00,-7,< 4.00,99,inactive,17,N=C(N)Nc1cccc(Cc2ccc(NC(=N)Nc3ccc(Cl)c(C(F)(F)F)c3)cc2)c1,4.80,17
< 4.00,12,< 4.00,74,inactive,,N=C(N)Nc1cccc(Nc2ccc(NC(=N)Nc3ccc(Cl)c(C(F)(F)F)c3)cc2)c1,4.44,-3
< 4.00,21,< 4.00,96,inactive,-7,N=C(N)Nc1cccc(Oc2ccc(NC(=N)Nc3ccc(Cl)c(C(F)(F)F)c3)cc2)c1,4.61,0
< 4.00,-1,< 4.00,22,,-4,N=C(N)Nc1ccc(Oc2cccc(NC(=N)N)c2)cc1,4.44,-1
< 4.00,,< 4.00,,,,N=C(N)Nc1ccc(C(=O)c2cccc(NC(=N)N)c2)cc1,3.85,
< 4.00,,< 4.00,,,,c1cc(NC2=NCCN2)cc(Oc2ccc(NC3=NCCN3)cc2)c1,< 4.00,
< 4.00,,< 4.00,,,,N=C(N)Nc1cccc(Nc2ccc(NC(=N)Nc3ccccc3)cc2)c1,< 4.00,
< 4.00,,< 4.00,,,,N=C(N)Nc1ccc(Cc2cccc(NC(=N)Nc3ccccc3)c2)cc1,< 4.00,
< 4.00,,< 4.00,,,,N=C(N)Nc1cccc(C(=O)c2ccc(NC(=N)Nc3ccccc3)cc2)c1,< 4.00,
< 4.00,,< 4.00,,,,O=C(c1ccc(NC2=NCCN2)cc1)c1cccc(NC2=NCCN2)c1,< 4.00,
< 4.00,12,< 4.00,38,inactive,12,CC(=O)Nc1cccc(Nc2ccc(NC(=N)Nc3ccc(Cl)c(C(F)(F)F)c3)cc2)c1,5.40,1
< 4.00,,< 4.00,,,,c1cc(Cc2ccc(NC3=NCCN3)cc2)cc(NC2=NCCN2)c1,< 4.00,
